In data set [1] the test system is IL-1β production in LPS-stimulated human peripheral blood mononuclear cells. Nature of the data set: Inhibition of LPS-stimulated IL-1β release from PBMCs. Type of data set: cell-based. The settings on record: PBMC, LPS-stimulated cytokine release from PBMCs. The procedure: (§1) IC50 values were determined for representative compounds of the invention based upon their ability to inhibit LPS-induced cytokine production in human peripheral blood mononuclear cells. Human PBMCs (peripheral blood mononuclear cells) were isolated over a Ficoll gradient from buffy coats obtained from the local Red Cross. 10^6 PBMC cells/well were seeded in 24-well tissue culture plates in RPMI 1640 medium supplemented with 10% human serum, hepes buffer and sodium pyruvate. The cells were treated with 0.1% DMSO (vehicle) or test compounds (1, 10, and 100 uM) 30 minutes prior to activation with LPS (lipopolysaccharide) (E. Coli) at 10 ng/mL. 6-10 hours post LPS stimulation the culture supernatants were collected and levels of cytokines TNF-α and IL-1β were quantified by ELISA (R&D Systems) and/or Luminex (Linco Diagnostics). IC50 calculations were plotted using a nonlinear regression curve fit for exemplary substituted pyrazolo[1,5-a]pyridine compounds of the invention; results are provided in Table 2.

Data set [2] has as its system TNF-α production in LPS-stimulated human peripheral blood mononuclear cells. Nature of the data set: Inhibition of LPS-stimulated TNF-α release from PBMCs. It is filed as cell-based. The note with it: PBMC. The procedure:
as §1

The test system of data set [3] is mechanical allodynia after chronic constriction injury (CCI) to the sciatic nerve. As to the kind of experiment: Mechanical allodynia by response to von Frey fibers, rat chronic constriction injury (CCI) model. The note with it: 10 mg/kg IP, 2 hr post dosing. Type of data set: in vivo, male Sprague-Dawley rats. An outline of the steps:
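Male Sprague-Dawley rats with unilateral CCI (four loose ligatures around the right sciatic nerve; left side sham). 50% paw withdrawal threshold to von Frey filaments was measured blinded before and 2 h after a single i.p. dose (n=5-6). Value is the change from pre-dosing baseline.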

Data set [4] deals with phosphodiesterase (PDE) enzyme derived from bovine brain. As to the kind of experiment: Inhibition of PDE (PDELight kit, cAMP substrate). It is filed as biochemical. The settings on record: PDE from brain extract, cAMP as substrate. The procedure:
In a 96-well plate, phosphodiesterase (PDE) enzyme (0.5-1 mU/well) derived from bovine brain (Sigma) was combined with 5 uM cAMP substrate (Sigma). Test compounds (0-200 uM) or vehicle (0.5% DMSO) were added to the enzyme/substrate and incubated for 1 hour. Using a PDELight® kit (Cambrex), the amount of AMP produced in the reaction from the hydrolysis of cAMP was quantified using PDELight AMP Detection Reagent which converts the AMP directly to ATP. The assay uses luciferase, which catalyses the formation of light from the newly formed ATP and luciferin. The luminescence was read on a Victor Light 1420 luminometer. IC50 calculations were plotted using a nonlinear regression curve fit.

[5] abbreviates: LPS-stimulated cytokine release from PBMCs, read-out: TNF-α (IC50).

Like-named read-outs stand apart in the source and are kept apart here.

One may read the melting point as the temperature of the solid-liquid transition. A word on the IC50: it is the midpoint of a concentration-inhibition curve. `CCC(=O)c1c(C(C)C)nn2ccccc12` [Compound 1001, 1-(2-isopropylpyrazolo[1,5-a]pyridin-3-yl)propan-1-one] displayed a melting point of 41 to 43 °C. The compound further returned an IC50 in data set [1] of over 100 µM. The IC50 in data set [2] (setting [5]) was found to be 13 µM. For the same compound, the IC50 in data set [2] (less than or equal to about 50 μM, PBMCs, read-out: IC50, LPS-induced cytokine production (cytokine not specified)) is at most 50 µM. The “Mechanical Allodynia ΔWT (change from pre-dosing 50% withdrawal threshold)” value in data set [3] was 0 grams. In data set [4], this compound returned an IC50 of 58 µM.

Compound `CC(C)C(=O)c1c(-c2ccc(F)cc2)nn2cc(C(F)(F)F)ccc12` [Compound 1027, 1-(2-(4-fluorophenyl)-6-(trifluoromethyl)pyrazolo[1,5-a]pyridin-3-yl)-2-methylpropan-1-one] displayed a melting point of 129 to 130 °C. Besides, in data set [3], the “Mechanical Allodynia ΔWT (change from pre-dosing 50% withdrawal threshold)” value came to 0 grams. For the same compound, in data set [4], the 50% inhibitory concentration (IC50) was over 200 µM.

With `CC(C)c1nn2ccccc2c1C(O)C(C)C` (centres unmarked) [Compound 1002, 1-(2-isopropylpyrazolo[1,5-a]pyridin-3-yl)-2-methylpropan-1-ol], the melting point was 69 °C. For the same compound, the IC50 in data set [1] was over 100 µM. Further, the 50% inhibitory concentration (IC50) in data set [2] (setting [5]) was over 100 µM. Moreover, the “Mechanical Allodynia ΔWT (change from pre-dosing 50% withdrawal threshold)” value in data set [3] is recorded as 0.79 grams. This compound also gave a half-inhibitory concentration (IC50) in data set [4] of over 200 µM.

In turn, `O=C(c1c(C2CC2)nn2ccccc12)C1CC1` [Compound 1047, cyclopropyl(2-cyclopropylpyrazolo[1,5-a]pyridin-3-yl)methanone] gave a melting point of 102 to 104 °C. Moreover, the “Mechanical Allodynia ΔWT (change from pre-dosing 50% withdrawal threshold)” value in data set [3] stood at 0.68 grams. The same compound had an IC50 in data set [4] of 15.4 µM.
